For assay [1], the target named is T1, KRAS G12D/SOS1 (Homo sapiens, UniProt Q07889).
T1 sequence (Q07889 1-1333): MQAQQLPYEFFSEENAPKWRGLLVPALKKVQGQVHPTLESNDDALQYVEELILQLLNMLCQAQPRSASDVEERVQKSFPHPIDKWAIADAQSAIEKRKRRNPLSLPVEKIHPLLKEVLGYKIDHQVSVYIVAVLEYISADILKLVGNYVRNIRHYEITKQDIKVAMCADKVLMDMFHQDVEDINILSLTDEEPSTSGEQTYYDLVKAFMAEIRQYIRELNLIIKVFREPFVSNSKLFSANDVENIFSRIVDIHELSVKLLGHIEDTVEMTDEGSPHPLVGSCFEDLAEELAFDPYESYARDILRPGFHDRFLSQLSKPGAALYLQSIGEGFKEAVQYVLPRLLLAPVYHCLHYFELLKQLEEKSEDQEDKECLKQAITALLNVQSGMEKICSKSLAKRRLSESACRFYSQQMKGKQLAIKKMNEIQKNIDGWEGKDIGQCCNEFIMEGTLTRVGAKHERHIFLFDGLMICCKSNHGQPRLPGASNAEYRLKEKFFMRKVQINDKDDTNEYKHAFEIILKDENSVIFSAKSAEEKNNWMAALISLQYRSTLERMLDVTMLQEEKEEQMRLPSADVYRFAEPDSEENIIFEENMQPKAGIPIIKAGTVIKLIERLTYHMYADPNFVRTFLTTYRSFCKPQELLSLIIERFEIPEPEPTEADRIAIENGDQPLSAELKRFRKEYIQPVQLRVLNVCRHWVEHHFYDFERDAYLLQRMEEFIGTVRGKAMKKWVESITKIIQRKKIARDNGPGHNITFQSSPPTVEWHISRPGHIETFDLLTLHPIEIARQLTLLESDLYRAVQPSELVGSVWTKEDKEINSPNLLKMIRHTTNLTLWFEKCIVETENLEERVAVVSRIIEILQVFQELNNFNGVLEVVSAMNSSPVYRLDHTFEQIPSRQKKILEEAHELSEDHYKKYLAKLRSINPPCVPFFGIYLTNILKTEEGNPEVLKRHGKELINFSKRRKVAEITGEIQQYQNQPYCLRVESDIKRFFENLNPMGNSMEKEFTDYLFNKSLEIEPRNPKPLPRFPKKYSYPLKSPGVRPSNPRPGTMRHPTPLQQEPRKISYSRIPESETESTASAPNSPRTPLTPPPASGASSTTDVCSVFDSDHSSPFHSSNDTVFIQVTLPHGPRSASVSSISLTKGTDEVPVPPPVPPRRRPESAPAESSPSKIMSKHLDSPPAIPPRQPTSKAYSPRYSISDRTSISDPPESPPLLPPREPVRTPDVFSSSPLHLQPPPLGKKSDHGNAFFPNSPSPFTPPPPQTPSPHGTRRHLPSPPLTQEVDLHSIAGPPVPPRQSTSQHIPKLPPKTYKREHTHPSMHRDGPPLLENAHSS
In words: KRAS G12D/SOS1 binding assay (HTRF). The following applies: Tag2-KRAS G12D with Tag1-SOS1, 10 μM GTP. (Time-resolved FRET reads energy transfer from a long-lived donor to a nearby acceptor.)

Assay [2] addresses T2, KRAS-WT/SOS1 (Homo sapiens, UniProt Q07889).
T2 sequence (Q07889 1-1333): T1 sequence (Q07889 1-1333)
In words: KRAS-WT/SOS1 binding assay (HTRF). The following applies: Tag2-KRAS-WT with Tag1-SOS1, 10 μM GTP.

For assay [3], the target named is T3, KRAS G12C/SOS1 (Homo sapiens, UniProt Q07889).
T3 sequence (Q07889 1-1333): T1 sequence (Q07889 1-1333)
In words: biochemical.

The target in assay [4] is T1, KRAS G12D/SOS1. The experiment in a line: biochemical.
The target of assay [5] is T2, KRAS-WT/SOS1. In words: biochemical.

With `COc1c(OC2CC(F)(F)C2)cc(C(=O)N[C@H](C)c2cccc3c2CCC3(F)F)c2n[nH]cc12` [Example 31, (R)-N-(1-(1,1-difluoro-2,3-dihydro-1H-inden-4-yl)ethyl)-5-(3,3-difluorocyclobutoxy)-4-methoxy-2H-indazole-7-carboxamide], the “Activity Data in Kras: SOS1 Assay, G12D” value in assay [1] is “C (C: 500~5 μM)”. In addition, the “Activity Data in Kras: SOS1 Assay, Wild Type” value (from here on “Activity Data … Wild Type”) in assay [2] is listed as “C (C: 500~5 μM)”. `C[C@@H](NC(=O)c1cn(C2CCOCC2)c(=O)c2cc[nH]c12)c1cccc(C(F)(F)CO)c1` [Example 39, (R)—N-(1-(3-(1,1-difluoro-2-hydroxyethyl)phenyl)ethyl)-4-oxo-5-(tetrahydro-2H-pyran-4-yl)-4,5-dihydro-1H-pyrrolo[3,2-c]pyridine-7-carboxamide]: the concentration for half-maximal inhibition (IC50) – broadly, the point on the concentration scale where inhibition reaches its midpoint – in assay [3] was less than 100 nM. For `C[C@@H](NC(=O)c1cn(C2CCOCC2)c(=O)c2c[nH]nc12)c1cccc(C(F)(F)CO)c1` [Example 1, (R)—N-(1-(3-(1,1-difluoro-2-hydroxyethyl)phenyl)ethyl)-4-oxo-5-(tetrahydro-2H-pyran-4-yl)-4,5-dihydro-2H-pyrazolo[4,3-c]pyridine-7-carboxamide], the IC50 in assay [3] and in assay [4] was less than 100 nM each time. As for `C[C@@H](NC(=O)c1cn(C2(C)CC2)c(=O)c2cn[nH]c12)c1cccc(C(F)(F)F)n1` [Example 8, (R)-5-(1-methylcyclopropyl)-4-oxo-N-(1-(6-(trifluoromethyl)pyridin-2-yl)ethyl)-4,5-dihydro-1H-pyrazolo[4,3-c]pyridine-7-carboxamide], the “Activity Data in Kras: SOS1 Assay, G12D” value in assay [1] is reported as “C (C: 500~5 μM)”. The “Activity Data … Wild Type” value in assay [2] is recorded as “C (C: 500~5 μM)”. Regarding `COc1c(-c2ccc(=O)n(C)c2)cc(C(=O)N[C@H](C)c2cccc3c2CCC3(F)F)c2n[nH]cc12` [Example 17, N-[(1R)-1-(1,1-difluoro-2,3-dihydro-1H-inden-4-yl)ethyl]-4-methoxy-5-(1-methyl-6-oxo-1,6-dihydropyridin-3-yl)-2H-indazole-7-carboxamide], the concentration for half-maximal inhibition (IC50) in assay [3] was less than 100 nM.

`C[C@@H](NC(=O)c1cn(C2CCOCC2)c(=O)c2cc[nH]c12)c1cccc(C(F)F)c1F` [Example 40, (R)—N-(1-(3-(difluoromethyl)-2-fluorophenyl)ethyl)-4-oxo-5-(tetrahydro-2H-pyran-4-yl)-4,5-dihydro-1H-pyrrolo[3,2-c]pyridine-7-carboxamide] displayed a concentration for half-maximal inhibition (IC50) in assay [3] of less than 100 nM.

For `COc1c(N2CCOCC2)nc(C(=O)N[C@H](C)c2cccc3c2CCC3(F)F)c2n[nH]cc12` [Example 44, (R)—N-(1-(1,1-difluoro-2,3-dihydro-1H-inden-4-yl)ethyl)-4-methoxy-5-morpholino-2H-pyrazolo[3,4-c]pyridine-7-carboxamide], in assay [1], the “Activity Data in Kras: SOS1 Assay, G12D” value is given as “C (C: 500~5 μM)”. Besides, the “Activity Data … Wild Type” value in assay [2] is reported as “C (C: 500~5 μM)”. In assay [3], `C[C@@H](NC(=O)c1cn(C2CCOCC2)c(=O)c2cc[nH]c12)c1cccc2c1CCC2(F)F` [Example 38, (R)—N-(1-(1,1-difluoro-2,3-dihydro-1H-inden-4-yl)ethyl)-4-oxo-5-(tetrahydro-2H-pyran-4-yl)-4,5-dihydro-1H-pyrrolo[3,2-c]pyridine-7-carboxamide] returned an IC50 of less than 100 nM.

For the compound `CNCc1ccccc1-c1ccc([C@@H](C)NC(=O)c2cn(C3(C)CC3)c(=O)c3cn[nH]c23)s1` [Example 9, (R)-N-(1-(5-(2-((methylamino)methyl)phenyl)thiophen-2-yl)ethyl)-5-(1-methylcyclopropyl)-4-oxo-4,5-dihydro-1H-pyrazolo[4,3-c]pyridine-7-carboxamide], the half-maximal inhibitory concentration (IC50) in assay [4] and in assay [5] was less than 100 nM in each case. Regarding `CC(=O)N1CCC(n2cc(C(=O)N[C@H](C)c3cccc4c3CCC4(F)F)c3n[nH]cc3c2=O)CC1` [Example 10, (R)-5-(1-acetylpiperidin-4-yl)-N-(1-(1,1-difluoro-2,3-dihydro-1H-inden-4-yl)ethyl)-4-oxo-4,5-dihydro-2H-pyrazolo[4,3-c]pyridine-7-carboxamide], the IC50 in assay [4] and in assay [5] was less than 100 nM in each case. Turning to `Cc1nc(N[C@H](C)c2cccc3c2CCC3(F)F)c2c(n1)N(C)C(=O)N(C1CCOCC1)C2` [Example 26, (R)-5-((1-(1,1-difluoro-2,3-dihydro-1H-inden-4-yl)ethyl)amino)-1,7-dimethyl-3-(tetrahydro-2H-pyran-4-yl)-3,4-dihydropyrimido[4,5-d]pyrimidin-2(1H)-one], the half-maximal inhibitory concentration (IC50) in assay [3] was in the range of 100 to 500 nM.

Take `C[C@@H](NC(=O)c1cn(C2CC(F)(F)C2)c(=O)c2cn[nH]c12)c1cccc(C(F)(F)F)c1` [Example 14, (R)-5-(3,3-difluorocyclobutyl)-4-oxo-N-(1-(3-(trifluoromethyl)phenyl)ethyl)-4,5-dihydro-1H-pyrazolo[4,3-c]pyridine-7-carboxamide]: the IC50 in assay [4] and in assay [5] was 100 to 500 nM each time. In assay [3], `COc1c(C2CCOCC2)cc(C(=O)N[C@H](C)c2cccc3c2CCC3(F)F)c2n[nH]cc12` [Example 16, N-[(1R)-1-(1,1-difluoro-2,3-dihydro-1H-inden-4-yl)ethyl]-4-methoxy-5-(oxan-4-yl)-2H-indazole-7-carboxamide] displayed an IC50 of 100 to 500 nM.

In the case of `COc1c(N2CCOCC2)cc(C(=O)N[C@H](C)c2cccc3c2CCC3(F)F)c2n[nH]cc12` [Example 18, N-[(1R)-1-(1,1-difluoro-2,3-dihydro-1H-inden-4-yl)ethyl]-4-methoxy-5-(morpholin-4-yl)-2H-indazole-7-carboxamide], the IC50 in assay [4] and in assay [5] was less than 100 nM each time. As for `COc1c(N2CCNCC2)cc(C(=O)N[C@H](C)c2cccc(C(F)(F)CO)c2)c2[nH]ncc12` [Example 33], the 50% inhibitory concentration (IC50) in assay [4] and in assay [5] was less than 100 nM in each case. Consider `Cc1nc(N[C@H](C)c2cccc(C(F)(F)CO)c2)c2c(n1)N(C)C(=O)N(C1CCOCC1)C2` [Example 25, (R)-5-((1-(3-(1,1-difluoro-2-hydroxyethyl)phenyl)ethyl)amino)-1,7-dimethyl-3-(tetrahydro-2H-pyran-4-yl)-3,4-dihydropyrimido[4,5-d]pyrimidin-2(1H)-one], for which the IC50 in assay [3] and in assay [5] was 100 to 500 nM in each case.

On to `COc1c(C(C)N)cc(C(=O)N[C@H](C)c2cccc3c2CCC3(F)F)c2n[nH]cc12` (stereo partly drawn) [Example 24, 5-(1-aminoethyl)-N—((R)-1-(1,1-difluoro-2,3-dihydro-1H-inden-4-yl)ethyl)-4-methoxy-2H-indazole-7-carboxamide], for which the concentration for half-maximal inhibition (IC50) in assay [4] and in assay [5] was 100 to 500 nM throughout. Consider `C[C@@H](NC(=O)c1cn(C2CC(F)(F)C2)c(=O)c2cn[nH]c12)c1cccc2c1CCC2(F)F` [Example 13, (R)—N-(1-(1,1-difluoro-2,3-dihydro-1H-inden-4-yl)ethyl)-5-(3,3-difluorocyclobutyl)-4-oxo-4,5-dihydro-1H-pyrazolo[4,3-c]pyridine-7-carboxamide], for which the IC50 in assay [4] and in assay [5] was less than 100 nM throughout. `C[C@@H](NC(=O)c1cn(C2CCOCC2)c(=O)c2c[nH]nc12)c1cccc(C(F)F)c1F` [Example 3, (R)-N-(1-(3-(difluoromethyl)-2-fluorophenyl)ethyl)-4-oxo-5-(tetrahydro-2H-pyran-4-yl)-4,5-dihydro-2H-pyrazolo[4,3-c]pyridine-7-carboxamide]: the IC50 in assay [3], in assay [4] and in assay [5] was less than 100 nM throughout.

Values taken from US20240109887A1 (Viva Star Biosciences (Suzhou) Co., Ltd., priority 2021, published 2024).
